Data published in patent US11331294B2, “Benzoquinone derivative E3330 in combination with chemotherapeutic agents for the treatment of bladder cancer” (Indiana University Research and Technology Corporation, priority 2007, dated 2022).

Tested on: VEGF release from Hey-C2, SKOV-3X, Panc1, PaCa-2 and Igrov cells
Test: VEGF ELISA on cancer cell supernatants
Type: cell-based, human
Settings: normoxia and hypoxia, about 24 hrs
Experimental: Inhibition of VEGF release. VEGF enzyme-linked immunosorbent assay (ELISA). Various cancer cell lines were plated in a 24-well plate and treated in duplicates with for about 24 hrs in normoxic (about 21% oxygen) or hypoxic (about 2% oxygen) condition. The supernatants of cells were collected and subjected to an ELISA assay with a kit specific for human VEGF according to the manufacturer (R&D Systems, Minneapolis, Minn.) VEGF ELISA assay results were read in a 96-well format plate reader by measuring absorbance at 450 nm with correction at 540 nm. Hypoxia induced an increase in VEGF release (FIG. 2). (For FIGS. 2-7, black bars=normoxia; gray bars=hypoxia.)
VEGF ELISA Assays. Hey-C2 (ovarian cancer), SKOV-3X (ovarian cancer), Pancl (pancreatic cancer), PaCa-2 (pancreatic cancer), and Igrov (ovarian cancer) cells were plated in a 24-well plate and treated in duplicates with (RN3-3 e) at different concentrations for about 24 hrs in normoxic (about 21% oxygen) or hypoxic (about 2% oxygen) condition. The supernatants of cells were collected and subjected to an ELISA assay with a kit specific for human VEGF according to the manufacturer (R&D Systems, Minneapolis, Minn.). VEGF ELISA assay results were read in a 96-well format plate reader by measuring absorbance at 450 nm with correction at 540 nm.

CCCCCCCCC/C(=C\C1=C(C)C(=O)C(OC)=C(OC)C1=O)C(=O)O [APX3330]
VEGF release: reduced the amount of VEGF release
